Experimental data published in patent publication US7335665B2, “Spirocyclic piperidines as MCH1 antagonists and uses thereof” (H - Lundbeck A/S, priority 2003, dated 2008).

Molecular target: T1, MCH-1 receptor (Rattus norvegicus, UniProt P97639)
T1 construct: host or cells: in vivo, endogenous receptor of the animal
Experiment: not given
Conditions: in vivo; cited from earlier work

T1 sequence (P97639 whole entry): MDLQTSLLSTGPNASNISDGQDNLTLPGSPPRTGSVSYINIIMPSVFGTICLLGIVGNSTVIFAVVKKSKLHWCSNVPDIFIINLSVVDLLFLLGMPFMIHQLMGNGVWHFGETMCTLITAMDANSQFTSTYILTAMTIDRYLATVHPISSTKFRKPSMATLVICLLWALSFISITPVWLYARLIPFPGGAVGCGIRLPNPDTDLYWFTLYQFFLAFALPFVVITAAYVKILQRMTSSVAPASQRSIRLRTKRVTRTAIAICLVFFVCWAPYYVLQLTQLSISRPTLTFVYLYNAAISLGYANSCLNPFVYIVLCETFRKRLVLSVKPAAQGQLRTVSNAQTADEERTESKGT

Compound	food intake induced by the intracerebroventricular application of MCH
CN(C)CC1CCc2cc(NC(=O)c3ccc(-c4ccc(F)cc4)cc3)ccc2C1 (stereo not drawn) [Example T-226296]	inhibit food intake

Tested on: G4F-7 cells
Experiment: not given
Conditions: inhibition of radioiodinated [Phe13,Tyr19]-MCH binding; cited from earlier work

Compound	Ki [nM]
native MCH: Melanin-concentrating hormone, cyclic peptide	12

Same assay, conditions: radioiodinated ligand, G4F-7 mouse melanoma cells; cited from earlier work

Compound	Kd [nM]
[Phe^13,Tyr^19]-MCH	0.118

Molecular target: T2, rat MCH1 receptor (Rattus norvegicus, UniProt P97639)
T2 construct: expressed in transfected cells; host or cells: Human embryonic kidney Peak rapid 293 cells (Peakr293), transient, calcium phosphate; membranes
Experiment: Radioligand binding assay at cloned rat MCH1 receptor ([3H]Compound A displacement)
Conditions: KI, cloned rat MCH1, membranes of transfected Peakr293 cells, 0.08 nM [3H]Compound A, 25° C., 90 minutes
Summary of the method: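 Membranes from Peakr293 cells transiently transfected with rat MCH1 receptor were incubated with 0.08 nM [3H]Compound A in 50 mM Tris pH 7.4, 10 mM MgCl2, PMSF, 1,10-phenanthroline and 0.2% BSA, 90 min at 25° C. Bound ligand was collected by filtration; nonspecific binding was defined with […] Compound A.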

T2 sequence (P97639 whole entry): as above

Compound	Ki [nM]
O=C(NCCCN1CCC2(CC1)OCc1ccccc12)C1(c2ccc(Cl)cc2)CCC1 [Example 87, [(4-CHLOROPHENYL)CYCLOBUTYL]-N-(3-(SPIRO[1,3-DIHYDROISOBENZOFURAN-1,4′-PIPERIDINE]-10-YL)PROPYL)CARBOXAMIDE]	417
CC(C(=O)NCCCN1CCC2(CC1)OCc1ccccc12)(c1ccccc1)c1ccccc1 [Example 88, 2,2-DIPHENYL-N-(3-(SPIRO[1,3-DIHYDROISOBENZOFURAN-1,4′-PIPERIDINE]-10-YL)PROPYL)PROPANAMIDE]	144
O=C1OC2(CCN(CCCNC(=O)C(c3ccc(Cl)cc3)c3ccc(Cl)cc3)CC2)c2ccccc21 [Example 94, 2,2-BIS(4-CHLOROPHENYL)-N-[3-(1-OXOSPIRO[3-HYDROISOBENZOFURAN-3,4′-PIPERIDINE]-10-YL)PROPYL]ACETAMIDE]	600
Cc1ccc(C(C(=O)NCCCN2CCC3(CC2)C(=O)CCc2ccccc23)c2ccc(C)cc2)cc1 [Example 97, 2,2-BIS(4-METHYL)PHENYL)-N-[3-(2-OXOSPIRO[1,3,4-TRIHYDRONAPHTHALENE-1,4′-PIPERIDINE]-11-YL)PROPYL]ACETAMIDE]	428
O=C(NCCCN1CCC2(CC1)OCc1cc(F)c(F)c(F)c12)C(c1ccccc1)c1ccccc1 [Example 99, 2,2-DIPHENYL-N-[3-(4,5,6-TRIFLUOROSPIRO[1,3-DIHYDROISOBENZOFURAN-3,4′-PIPERIDINE]-10-YL)PROPYL]ACETAMIDE]	11.6

Same assay, conditions: cloned rat MCH1, membranes of transfected Peakr293 cells, 0.08 nM [3H]Compound A, 25° C., 90 minutes; read-out: KI

Compound	Ki [nM]
O=C(NCCCN1CCC2(CC1)OCc1ccccc12)C1(c2ccc(Cl)cc2)CC1 [Example 89, [(4-CHLOROPHENYL)CYCLOPROPYL]-N-(3-(SPIRO[1,3-DIHYDROISOBENZOFURAN-1,4′-PIPERIDINE]-10-YL)PROPYL)CARBOXAMIDE]	481
O=C(NCCCN1CCC2(CC1)OCc1ccccc12)C(c1ccc(Cl)cc1)c1ccc(Cl)cc1 [Example 90, 2,2-BIS(4-CHLOROPHENYL)-N-(3-(SPIRO[1,3-DIHYDROISOBENZOFURAN-1,4′-PIPERIDINE]-10-YL)PROPYL)ACETAMIDE]	5.4
O=C(NCCCN1CCC2(CC1)Cc1ccccc1C2=O)C(c1ccc(Cl)cc1)c1ccc(Cl)cc1 [Example 91, 2,2-BIS(4-CHLOROPHENYL)-N-[3-(1-OXOSPIRO[INDANE-2,4′-PIPERIDINE]-10-YL)PROPYL]ACETAMIDE]	381
O=C(NCCCN1CCC2(CC1)Cc1ccccc1C2=O)C(c1ccc(F)cc1)c1ccc(F)cc1 [Example 92, 2,2-BIS(4-FLUOROPHENYL)-N-[3-(1-OXOSPIRO[INDANE-2,4′-PIPERIDINE]-10-YL)PROPYL]ACETAMIDE]	61.6
O=C1OC2(CCN(CCCNC(=O)C(c3ccccc3)c3ccccc3)CC2)c2ccccc21 [Example 93, N-[3-(1-OXOSPIRO[3-HYDROISOBENZOFURAN-3,4′-PIPERIDINE]-10-YL)PROPYL]-2,2-DIPHENYLACETAMIDE]	783
O=C1OC2(CCN(CCCNC(=O)C(c3ccc(F)cc3)c3ccc(F)cc3)CC2)c2ccccc21 [Example 95, 2,2-BIS(4-FLUOROPHENYL)-N-[3-(1-OXOSPIRO[3-HYDROISOBENZOFURAN-3,4′-PIPERIDINE]-10-YL)PROPYL]ACETAMIDE]	84.6
O=C(NCCCN1CCC2(CCCc3ccccc32)CC1)C(c1ccccc1)c1ccccc1 [Example 96, 2,2-DIPHENYL-N-(3-(SPIRO[1,2,3,4-TETRAHYDRONAPHTHALENE-1,4′-PIPERIDINE]-11-YL) PROPYL)ACETAMIDE]	128
O=C(NCCCN1CCC2(CC1)C(=O)CCc1ccccc12)C(c1ccccc1)c1ccccc1 [Example 98, N-[3-(2-OXOSPIRO[1,3,4-TRIHYDRONAPHTHALENE-1,4′-PIPERIDINE]-11-YL)PROPYL]-2,2-DIPHENYLACETAMIDE]	682
O=C(NCCCN1CCC2(CC1)OCc1ccc(Cl)cc12)C(c1ccccc1)c1ccccc1 [Example 100, N-[3-(5-CHLOROSPIRO[1,3-DIHYDROISOBENZOFURAN-3,4′-PIPERIDINE]-10-YL)PROPYL]-2,2-DIPHENYLACETAMIDE]	2.6
O=C(NCCCN1CCC2(CC1)OCc1ccc(F)cc12)C(c1ccccc1)c1ccccc1 [Example 101, N-[3-(5-FLUOROSPIRO[1,3-DIHYDROISOBENZOFURAN-3,4′-PIPERIDINE]-10-YL)PROPYL]-2,2-DIPHENYLACETAMIDE]	5.8
CC(C)c1ccc2c(c1)COC21CCN(CCCNC(=O)C(c2ccccc2)c2ccccc2)CC1 [Example 102, N-{3-[5-(METHYLETHYL)SPIRO[1,3-DIHYDROISOBENZOFURAN-1,4′-PIPERIDINE]-10-YL]PROPYL}-2,2-DIPHENYLACETAMIDE]	162
Cc1ccc2c(c1)COC21CCN(CCCNC(=O)C(c2ccccc2)c2ccccc2)CC1 [Example 103, N-[3-(5-METHYLSPIRO[1,3-DIHYDROISOBENZOFURAN-1,4′-PIPERIDINE]-10-YL)PROPYL]-2,2-DIPHENYLACETAMIDE]	14.7

Tested on: MCH-1 receptor
Experiment: not given
Conditions: rat and human MCH-1; cited from earlier work

Compound	affinity for the MCH-1 receptor [nM]
CN(C)CC1CCc2cc(NC(=O)c3ccc(-c4ccc(F)cc4)cc3)ccc2C1 (stereo not drawn) [Example T-226296]	5 to 9
